These results are taken from patent US12383547B2, “Methods of treatment for a kidney disease” (Vanderbilt University, priority 2020, dated 2025).

Where two headings read alike, the source gives them in different places. Some results are limits rather than exact numbers.

For data set [1] the following is noted: cited from earlier work.
For another data set, the system named is asthma patients (FEV1). As to conditions: cited from earlier work.
Another data set concerns animal models. The note with it: cited from earlier work.
For data set [2] the following is noted: cited from earlier work. This is another data set of the same source.
The test system of another data set is AKI in adult patients. Nature of the data set: Epidemiologic EHR analysis (Vanderbilt 'Synthetic Derivative') of montelukast use and AKI. It counts as in vivo, human. The note with it: N=3,721 adult patients, 147 users; logistic regression adjusted for race, sex, age, BMI, asthma; 95% CI: 13 to 56%; AKI defined as printed '≥21.5-fold serum creatine increase from baseline'.

Where [3] appears, read: single oral dose of 10, 100, or 250 mg.

Text for AKI in adult patients: Epidemiologic EHR data from Vanderbilt's ‘Synthetic Derivative’ was examined to determine whether montelukast use is associated with decreased AKI. Individuals eligible for inclusion in the dataset included those with two or more serum creatinine labs occurring after montelukast gained marketing approval (N=3,721), and children were excluded. Montelukast users were defined as those with ≥23 mentions of montelukast where 22 mentions are 230 days apart (N=147). AKI was defined as a ≥21.5-fold serum creatine increase from baseline (N=1,220). ‘Case users’ were defined as those who qualified as both an AKI case and a montelukast user (N=58). Crude and adjusted odds ratios (OR) and 95% confidence intervals (CI) were calculated using logistic regression.

A word on the half-life: it is the time in which the quantity being followed falls by half. For `CC(C)(O)c1ccccc1CC[C@@H](SCC1(CC(=O)O)CC1)c1cccc(/C=C/c2ccc3ccc(Cl)cc3n2)c1` [Montelukast, [R-(E)]-1-[[[1-[3-[2-(7-chloro-2-quinolinyl)ethenyl]phenyl]-3-[2-(1-hydroxy-1-methylethyl)phenyl]propyl]thio]methyl]cyclopropaneacetic acid], in data set [1] (200 mg three times per day for 10 days), the adverse events result is recorded as “no significant adverse events”. Moreover, in data set [1] (clinical studies of montelukast, 3.5% were 65 and over, 0.4% were 75 and over), the “safety or effectiveness in subjects 65 years and over versus younger subjects” value is given as “No overall differences in safety or effectiveness”. Also, the neuropsychiatric disturbances result in data set [1] (phase IV post marketing studies, chronic montelukast users, additional research did not support this finding) is “concern for neuropsychiatric disturbances was noted”. In data set [1] (single doses of 800 mg), the adverse events result was “no significant adverse events”. In addition, the “FEV1 increase at higher doses versus 10 mg once daily” value in the data set on asthma patients (FEV1) (200 mg three times per day) was “failed to increase FEV1 more than 10 mg once daily”. In addition, in the data set on asthma patients (FEV1) (setting [3]), the “period for which FEV1 effects were maintained” value was 24 h and the “time to significant improvement of FEV1 after administration” value is no more than 1 h. Moreover, in the data set on animal models, the markers of inflammation entry is listed as “attenuate markers of inflammation”. Besides, in the data set with animal models (leukotriene antagonists such as montelukast), the “markers of oxidative stress” value is given as “attenuate markers of oxidative stress”. In data set [2] (dose ranging study of 20-800 mg), the “plasma concentration in dose ranging study” value is on record as “dose-dependent increase in plasma concentration”. In data set [2] (human, in vivo), the half-life was 5 h, the “potential for drug-drug interactions” value was “low potential for drug-drug interactions” and the “steady state plasma levels achieved” value is 2 Day of dosing. Also, the “pharmacokinetics in elderly volunteers versus younger adults” value in data set [2] (oral 10 mg, elderly (aged 265 years as printed) vs younger adults (aged 20 to 45 years)) was “similar”. Further, the “elimination via the renal route” value in data set [2] (package insert) is “not significantly eliminated via the renal route”. Also, in the data set on AKI in adult patients, the “reduced odds (risk) of AKI, montelukast users compared to non-users” value is reported as 38%.
